Source: patent publication US10314771B2, “Methods and compositions for preventing and treating tooth erosion” (University of Tennessee Research Foundation, priority 2013, dated 2019)

Description: The capacity of sodium bicarbonate to neutralize acid saliva was assessed. A pool of saliva was collected from 5 individuals, and the normal pH of the saliva was measured before brushing or eating. […] In order to simulate an acidic challenge, the pH of the saliva was adjusted to 2.5 with 0.01M HCl.
The saliva was titrated with a 3M sodium bicarbonate solution and measured the volume of solution necessary to neutralize the saliva to a pH of 6.8.

SMILES: O=C([O-])O.[Na+] [Sodium Bicarbonate, sodium bicarbonate]
- volume needed to neutralize the acidic saliva to a pH of 7.0 (3M solution): 2.0 mLs
- rinsing time sufficient to help neutralize the saliva (rinsing with a sodium bicarbonate solution): 30 s
